Experimental findings from patent US20040127501A1, “Therapeutic agents useful for treating pain” (priority 2002, published 2004) are described below.

The assay has as its target T1, mGluR5 (Rattus norvegicus, UniProt P31424).
T1 construct: The procedure allows the expression of the mGluR5 receptor by astrocytes; endogenous in cells; host or cells: secondary astrocyte cultures from embryonic (E18) Sprague-Dawley cortex, EGF-treated
The experiment in a line: mGluR5 calcium mobilization flux assay in primary astrocytes (Fluo-4, Fluorometric Imaging Plate reader). The settings on record: astrocytes expressing mGluR5; calcium mobilization flux with glutamate (final 10 mM); mean of 5 experiments. It counts as cell-based, rat (Sprague-Dawley). As to the method: Cell cultures: Primary glial cultures were prepared from cortices of Sprague-Dawley 18 days old embryos. The cortices were dissected and then dissociated by trituration. The resulting cell homogenate was plated onto poly-D-lysine precoated T175 flasks (BIOCOAT, commercially available from Becton Dickinson and Company Inc. of Franklin Lakes, N.J.) in Dulbecco's Modified Eagle's Medium (“DMEM,” pH 7.4), buffered with 25 mM HEPES, and supplemented with 15% fetal calf serum (“FCS,” commercially available from Hyclone Laboratories Inc. of Omaha, Nebr.), and incubated at 37° C. and 5% CO2. After 24 hours, FCS supplementation was reduced to 10%. […]
Assay Protocol: After 3-5 days incubation with EGF, the astrocytes were washed with 127 mM NaCl, 5 mM KCl, 2 mM MgCl2, […] NaH2PO4, 2 mM CaCl2, 5 mM NaHCO3, 8 mM HEPES, 10 mM Glucose at pH 7.4 (“Assay Buffer”) and loaded with the dye Fluo-4 (commercially available from Molecular Probes Inc. of Eugene, Oreg.) using 0.1 mL of Assay Buffer containing Fluo-4 ([…]). […] The plates containing the astrocytes were then transferred to a Fluorometric Imaging Plate reader (commercially available from Molecular Devices Corporation of Sunnyvale, Calif.) for the assessment of calcium mobilization flux in the presence of glutamate and in the presence or absence of antagonist. […] In each experiment each data point was determined two times.
(Calcium flux is commonly read through the fluorescence of an indicator in the cells.)

Molecules are shown by their SMILES.

T1 sequence (P31424 21-1203): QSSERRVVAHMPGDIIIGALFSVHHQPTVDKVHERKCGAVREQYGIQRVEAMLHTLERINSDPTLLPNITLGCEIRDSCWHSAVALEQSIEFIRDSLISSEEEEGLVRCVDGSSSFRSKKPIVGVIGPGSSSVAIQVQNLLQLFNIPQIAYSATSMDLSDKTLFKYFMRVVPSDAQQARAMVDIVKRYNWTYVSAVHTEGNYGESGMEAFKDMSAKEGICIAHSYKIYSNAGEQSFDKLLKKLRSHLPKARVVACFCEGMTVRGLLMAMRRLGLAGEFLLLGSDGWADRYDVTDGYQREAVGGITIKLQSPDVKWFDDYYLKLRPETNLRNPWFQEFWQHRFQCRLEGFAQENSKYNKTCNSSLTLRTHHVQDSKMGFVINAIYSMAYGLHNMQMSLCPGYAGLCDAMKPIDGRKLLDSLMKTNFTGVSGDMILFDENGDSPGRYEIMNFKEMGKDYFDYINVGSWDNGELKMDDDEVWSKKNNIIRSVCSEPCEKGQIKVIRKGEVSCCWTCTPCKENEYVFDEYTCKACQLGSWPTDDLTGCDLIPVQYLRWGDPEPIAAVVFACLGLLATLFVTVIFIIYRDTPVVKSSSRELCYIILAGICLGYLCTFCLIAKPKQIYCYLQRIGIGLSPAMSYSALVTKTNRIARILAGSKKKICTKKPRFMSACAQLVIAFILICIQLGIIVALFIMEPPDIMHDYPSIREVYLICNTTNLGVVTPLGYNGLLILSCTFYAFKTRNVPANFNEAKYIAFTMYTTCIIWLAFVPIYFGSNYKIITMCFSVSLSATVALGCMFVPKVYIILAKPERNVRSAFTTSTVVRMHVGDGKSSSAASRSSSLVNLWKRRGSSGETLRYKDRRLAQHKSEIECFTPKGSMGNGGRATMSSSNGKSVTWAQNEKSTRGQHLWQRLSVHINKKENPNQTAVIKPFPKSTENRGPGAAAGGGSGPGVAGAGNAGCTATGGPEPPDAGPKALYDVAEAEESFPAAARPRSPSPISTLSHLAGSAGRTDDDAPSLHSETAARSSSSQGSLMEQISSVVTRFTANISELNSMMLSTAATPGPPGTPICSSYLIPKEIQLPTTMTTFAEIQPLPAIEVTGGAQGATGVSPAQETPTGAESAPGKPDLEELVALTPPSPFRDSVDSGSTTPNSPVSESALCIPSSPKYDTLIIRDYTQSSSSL

In general, IC50 refers to the point on the concentration scale where inhibition reaches its midpoint. Take `O=C(C#Cc1ccccc1)N1CCN(c2ncccn2)CC1` [Compound AAA(IIa)]: the IC50 is 555 ± 137 nM.
